From patent US12208091B2, “Compounds for treatment of eye diseases associated with excessive vascularisation” (Active Biotech AB, priority 2019, dated 2025)

How the values were obtained:
[1] = tested on: Human retinal microvascular endothelial cells (HRMECs); experiment: LPS-activated microglia-induced HRMEC tube formation (co-culture); format: cell-based
Experimental: The following experimental groups were included in the study: • Group 1: […] Sulforaphane (10 μM, positive control, anti-angiogenic effects) • Group 3: Aflibercept (“Eylea” 40 μg/ml, positive control, partial anti-angiogenic effects) • Group 4: […] Human retinal microvascular endothelial cells (HRMECs) were purchased from Neuromics (Cat #HEC09, Lot #2872) and cultured according to manufacturer's instructions in Endo-Growth media (Cat #EKG001, Lot #EKG0011902269) supplemented with Endothelial Growth Factor (Cat #EKG001, Lot #EGK00125) on AlphaBiocoat coated T25 flasks at 37° C. 5% CO2. […] Human microglia were seeded onto PLL coated cell culture inserts (Sarstedt, Cat #83.3932.040) at 103 000 cells/cm^2. […] The method for co-cultures of microglia and HRMECs was modified from protocol described by Ding et al. 2018 (Ding X, Gu R, Zhang M, Ren H, Shu Q, Xu G, Wu H. Microglia enhanced the angiogenesis, migration and proliferation of co-cultured RMECs. […] PMID: 30223824; PMCID: PMC6142340) and Ji Cho et al. 2019 (Ji Cho M, Yoon […], Park J, Lee J, Park J G, Cho Y L, Hun Kim J, Jang H, Park Y J, Lee S H, Min J K. Oxidative stress-mediated TXNIP loss causes RPE dysfunction. […] PMID: 31615975; PMCID: PMC6802648). Microglia was activated with LPS (100 ng/ml) in microglia complete growth media without FBS with simultaneous treatment of freshly prepared study compounds, Eylea and vehicle for 24 hours. HRMECs were incubated in basal Endo-Growth media for 24 hours before co-culturing. […] Media in microglia inserts containing LPS was replaced to corresponding freshly prepared study compounds, aflibercept and sulforaphane in basal Endo-Growth media. […] 5% CO2, stained with calcein-AM (5 μM) for 30 min and imaged using a fluorescence microscope (Leica Thunder 3D Tissue Imager, Leica Microsystems). Images were analyzed using the AngioTool software (Zudaire E, Gambardella L, Kurcz […] Computational Tool for Quantitative Analysis of Vascular Networks. PLOS ONE 6(11): e27385. https://doi.org/10.1371/journal.pone.0027385) for ImageJ (NIH public domain). Total tube area, tube length, density, lacunarity, and branching index (number of junctions and endpoints) were quantified. Images were analyzed using AngioTool software (NIH, Bethesda, MD; available in the public domain) for the following readouts: average vessels length, total vessels length, vessel area, vessels percentage area, total number of junctions, density of junctions, total number of endpoints, and mean lacunarity. […] Raw data for each of the readouts was plotted and analyzed by ordinary one-way ANOVA with Dunnett's multiple comparisons post-hoc test. […] Effect size data were analyzed by non-parametric Kruskal-Wallis test, with Dunn's multiple comparisons post-hoc test.

[2] = tested on: VEGF induced corneal vascularisation; experiment: VEGF induced corneal vascularisation (pellet in corneal pocket), area of neovascularisation; format: in vivo, C57BL/6 mice; parameters: Area of vasc.: unit not given beside the values
Experimental: The area of the neovascularisation can be measured using the formula: Area=0.2·VL·CH·π wherein vessel length (VL) and continuous circumferential zone (in clock hours=CH) are measured as defined in FIG. 1. Treatment with Laquinimod of VEGF Induced Corneal Vascularisation
Hydron pellets for induction of vascularisation were prepared from stimulant (VEGF) and binding agent (sucralfate).
53 CR female C57BL/6 mice aged 6 to 8 weeks were prepared for surgery by anesthetising with 90 mg/kg of pentobarbital, ip. Corneal vascularisation was induced by placement of a pellet in a corneal pocket cut in one eye. Signs for ocular irritation or infection were carefully monitored.
[…] Vascularisation was measured on day 8.

[3] = Animal body weight in the ChNV rat study; format: in vivo, Brown Norway pigmented rats; conditions: during the study, oral 0.5 mg/kg 1×/day
Experimental: The body weight of all animals was recorded before the start of the study, then once every week.
Animal body weights were recorded before induction and treatment (baseline) and then once a week. Animal body weights were within the normal range at the baseline: 166-202 g (min−max, n=48). On Day 21, no significant difference between test and control items was observed. […] This loss is an expected adverse effect of orally dosed corticosteroid.

[4] = tested on: choroidal neovascularisation; experiment: Laser-induced choroidal neovascularisation rat model, fluorescein angiography leakage score; format: in vivo, Brown Norway pigmented rats; parameters: key to Mean score of fluorescein leakage: 0 = no leakage, 1 = slight, 2 = moderate, 3 = strongly stained; conditions: Per os 0.5 mg/kg 1×/day
Experimental: Forty-eight (48) Brown Norway pigmented rats were divided into six (6) groups of eight (8) animals. Choroidal neovascularization was induced using a 532 nm argon laser photocoagulator (six (6) 75 μm-sized spots at 150 mW for 0.1 sec duration) in the right eyes on Day 0. The test item was administered three times a day by instillation or twice a day by oral administration from Day 0 (DO) just after ChNV induction to Day 21 (last day of the study). Control item (vehicle) was instilled three times a day and the reference item (Dexamethasone in olive oil) was administered by daily oral administration from the Day 0 just after induction of neovascularization to Day 21. Fundus neovessels were evaluated in the right eyes on Days 14 and 21 using Heidelberg's Retinal Angiograph (HRA). Lesion size was determined on choroid flatmounts labelled with Isolectin-B4 at the end of the in vivo period.
On Day 0, animals were anesthetized by an intramuscular injection of a mix of xylazine (5 mg/kg) and ketamine (25 mg/kg). Pupils from the right eyes were dilated by instillation of one drop of 0.5% tropicamide. Then, six (6) choroidal burns (75 μm spot size) were done through a slit-lamp, with a contact lens, around the optic disc, between the main vessel branches using an argon laser photocoagulator (532 nm; 150 mW; 0.1 sec duration). Production of a bubble at the time of laser treatment confirmed the rupture of Bruch's membrane.
Test, control, or reference items were administered topically by instillation (10 μL each) or by oral route (1 mL/kg) from Day 0 (just after the induction) to Day 21 (end of the study). Test and control items were administered three times a day (for instillation) and two times a day (for oral administration). Reference item was administered once a day by oral route.
Fluorescein angiography was performed on Days 14 and 21 using an HRA (Heidelberg's Retinal Angiograph). After anaesthesia (same mix used for ChNV induction) and pupillary dilation, 250 μL/100 g (body weight) of a 10% sodium fluorescein was injected subcutaneously using a 26-G insulin syringe, and fluorescein photos were recorded 10 minutes after dye injection.
The leakage of fluorescein on the angiograms were evaluated by two examiners in a masked fashion and graded as follows: • Score 0, no leakage; • Score 1, slightly stained; • Score 2, moderately stained; • Score 3, strongly stained.
Statistical analysis, using Mann-Whitney U test or appropriate statistical model, were performed on the scoring of lesions visualized by HRA from each animal and on the scoring of the flat mounted preparations.
The grading of fluorescein angiographies (FA) was based on the fluorescence intensity for each lesion. For each treatment group, results were expressed as the group mean score per time-point. Table 1 summarises the evaluation of FA recorded at 10 min on Days 14 and 21 (n=8 animals per group, right eyes). A statistical analysis was performed on the median of the individual intensity scores, using a Kruskall-Wallis test followed by a Mann & Whitney U multiple comparison test, which was used to compare each test, control or reference group.

[5] = tested on: bFGF induced corneal vascularisation; experiment: bFGF induced corneal vascularisation (pellet in corneal pocket), area of neovascularisation; format: in vivo, C57BL/6 mice
[6] = tested on: Human retinal microvascular endothelial cells (HRMECs); experiment: Tube formation assay, combination with aflibercept (contemplated); format: cell-based; conditions: 0.01 and 0.1 μM combined with Aflibercept (30 nM)
Text: Microglia, especially activated microglia play important roles in angiogenesis and maintenance of vascular function haemostasis in the retinal microvasculature (Ding et al 2018). It is contemplated that a co-culture of human retinal microvasculature endothelial cells (HRMEC's) and human microglia from brain can be used to assess the effects of a compound of the disclosure, such as laquinimod, tasquinimod, ABR-215174 or ABR-215691, on neovascularization. A method such as the one outlined below may be used.
This study may be carried out substantially as outlined in Example 3.
Tube formation assay is performed using 24-well plate wells coated with Matrigel or in 96-wells as described Ding et al. 2018 (Ding et al. BMC Ophthalmology (2018) 18:249): A 96-well plate is coated with 50 μL/well Matrigel at 37° C. for 30 min. After co-culturing with microglia for 24 h, HRMECs are seeded on the Matrigel at 1.5×10^4 cells/well in 100 μL medium. After a period of time, for example 4 h, tube formation is observed and photographed with a microscope (Leica Microsystems). Images are analysed using the Angiotool plugin (Zudaire et al., 2011, PLoS one, 6, 11, e27385) for ImageJ (NIH public domain). Total tube area, tube length, density, lacunarity, and branching index (number of junctions and endpoints) are quantified.

[7] = tested on: metastatic chemo naïve prostate cancer (mCRPC); conditions: randomized placebo controlled Phase 2 and 3 studies; cited from earlier work
[8] = group 2: 5 mg/kg ip qd ×7, measured day 8
[9] = group 2: 5 mg/kg po qd ×5, measured day 6

## C[S+]([O-])CCCCN=C=S (stereo not shown) [sulforaphane, reference compound]
[1]; 10 μM, positive control, set to 100% by normalisation (vehicle 0%)
  Normalized effect size on average vessel length: 100%

## Avastin: Bevacizumab (Avastin) is an IgG1-based antibody which binds VEGF-A; positive control
[2]; 5 mg/kg (reference)
  Inhibition of corneal vascularisation induced by VEGF: 100%
[2]; [8]
  Area of vasc.: 0.00 ± 0.00
  Area percent of positive control: 0%

## Eylea: recombinant protein aflibercept (Eylea) with affinity for VEGF-A, VEGF-B, and PGF
[1]; 40 μg/ml, normalised to vehicle 0%, sulforaphane 100%
  Normalized effect size on average vessel length: 18%

## C[C@@H]1C[C@H]2[C@@H]3CCC4=CC(=O)C=C[C@]4(C)[C@@]3(F)[C@@H](O)C[C@]2(C)[C@@]1(O)C(=O)CO [Dexamethasone, reference compound]
[3]
  body weight loss: 21%
[4]; Day 14
  % of reduction vs respective vehicle: 71%
  Mean score of fluorescein leakage: 0.7
[4]; Day 21
  % of reduction vs respective vehicle: 73%
  Mean score of fluorescein leakage: 0.8

## CCN(CC)CCNC(=O)c1c(C)[nH]c(/C=C2\C(=O)Nc3ccc(F)cc32)c1C [Sutent, reference compound]
[5]; 40 mg/kg
  Inhibition of corneal vascularisation induced by bFGF: 80%
[5]; [9]
  Area of vasc.: 0.72 ± 0.08
  Area percent of positive control: 20%

## Cn1c(=O)c(C(=O)Nc2ccccc2)c(O)c2c(Cl)cccc21 [ABR-215174, 5-chloro-4-hydroxy-1-methyl-2-oxo-1,2-dihydroquinoline-3-carboxylic acid phenylamide]
[1]; 0.1 μM, normalised to vehicle 0%, sulforaphane 100%
  Normalized effect size on average vessel length: 88.2%
[6]
  effect on tube formation of combination compared to each compound used as monotherapy: clear additive effect

## COc1cccc2c1c(O)c(C(=O)N(C)c1ccc(C(F)(F)F)cc1)c(=O)n2C [tasquinimod]
[7]
  Disease progression (primary endpoint): significantly delayed
